Results taken from the NIST ThermoML archive (doi:10.1021/je500669y).

Assay: xn = mol fraction of the nth substance listed
Conditions: Gas, isochoric method

F/C=C/C(F)(F)F [trans-1,3,3,3-tetrafluoropropene] + C
Conditions	specific volume [m3/kg]
263.12 K, 541.7 kPa, x2 = 0.747	0.092
273.11 K, 305.7 kPa, x2 = 0.513	0.113
273.14 K, 216.8 kPa, x2 = 0.31	0.12
273.19 K, 565.7 kPa, x2 = 0.747	0.092
283.07 K, 225.4 kPa, x2 = 0.31	0.12
283.29 K, 1326.6 kPa, x2 = 0.748	0.041
283.3 K, 588.9 kPa, x2 = 0.747	0.092
283.38 K, 319 kPa, x2 = 0.513	0.113
288.33 K, 665.7 kPa, x2 = 0.496	0.051
293.03 K, 233.9 kPa, x2 = 0.31	0.12
293.03 K, 611.2 kPa, x2 = 0.747	0.092
293.06 K, 330.6 kPa, x2 = 0.513	0.113
293.17 K, 1381 kPa, x2 = 0.748	0.041
293.26 K, 456.1 kPa, x2 = 0.251	0.056
293.33 K, 681.4 kPa, x2 = 0.496	0.051
303.15 K, 474.1 kPa, x2 = 0.251	0.056
303.16 K, 242.4 kPa, x2 = 0.31	0.12
303.16 K, 711.2 kPa, x2 = 0.496	0.051
303.16 K, 1435.1 kPa, x2 = 0.748	0.041
303.22 K, 634.1 kPa, x2 = 0.747	0.092
303.23 K, 342.7 kPa, x2 = 0.513	0.113
313.15 K, 251 kPa, x2 = 0.31	0.121
313.15 K, 995.8 kPa, x2 = 0.261	0.026
313.19 K, 354.4 kPa, x2 = 0.513	0.113
313.2 K, 1488.8 kPa, x2 = 0.748	0.041
313.22 K, 1512.1 kPa, x2 = 0.513	0.024
313.23 K, 657.6 kPa, x2 = 0.747	0.092
313.24 K, 738.5 kPa, x2 = 0.496	0.051
323.17 K, 259 kPa, x2 = 0.31	0.121
323.17 K, 510.4 kPa, x2 = 0.251	0.056
323.19 K, 366.1 kPa, x2 = 0.513	0.113
323.19 K, 765.2 kPa, x2 = 0.496	0.051
323.21 K, 1040.8 kPa, x2 = 0.261	0.026
323.27 K, 1573.2 kPa, x2 = 0.513	0.024
323.29 K, 1542.4 kPa, x2 = 0.748	0.041
323.35 K, 680.5 kPa, x2 = 0.747	0.092
333.18 K, 1636.8 kPa, x2 = 0.513	0.024
333.2 K, 702.6 kPa, x2 = 0.747	0.092
333.2 K, 792 kPa, x2 = 0.496	0.051
333.25 K, 378.1 kPa, x2 = 0.513	0.113
333.25 K, 1083.7 kPa, x2 = 0.261	0.026
333.25 K, 1595.7 kPa, x2 = 0.748	0.041
333.27 K, 267.5 kPa, x2 = 0.31	0.121
343.11 K, 546.9 kPa, x2 = 0.251	0.056
343.12 K, 1126.5 kPa, x2 = 0.261	0.026
343.16 K, 389.7 kPa, x2 = 0.513	0.113
343.18 K, 275.8 kPa, x2 = 0.31	0.121
343.23 K, 818.7 kPa, x2 = 0.496	0.051
343.23 K, 1648.5 kPa, x2 = 0.748	0.041
343.25 K, 725.3 kPa, x2 = 0.747	0.092
343.34 K, 1700.6 kPa, x2 = 0.513	0.024
353.15 K, 747.4 kPa, x2 = 0.747	0.092
353.17 K, 284.2 kPa, x2 = 0.31	0.121
353.22 K, 401.5 kPa, x2 = 0.513	0.113
353.23 K, 1167.7 kPa, x2 = 0.261	0.026
353.23 K, 1701.4 kPa, x2 = 0.748	0.041
353.24 K, 845 kPa, x2 = 0.496	0.051
353.34 K, 1759 kPa, x2 = 0.513	0.024
363.15 K, 292.6 kPa, x2 = 0.31	0.121
363.16 K, 1209.5 kPa, x2 = 0.261	0.026
363.19 K, 1820.5 kPa, x2 = 0.513	0.024
363.21 K, 770.2 kPa, x2 = 0.747	0.092
363.24 K, 413.1 kPa, x2 = 0.513	0.114
363.25 K, 871.2 kPa, x2 = 0.496	0.051
363.28 K, 1754.1 kPa, x2 = 0.748	0.041
373.1 K, 424.6 kPa, x2 = 0.513	0.114
373.1 K, 1251.1 kPa, x2 = 0.261	0.026
373.11 K, 1881.5 kPa, x2 = 0.513	0.024
373.2 K, 301 kPa, x2 = 0.31	0.121
373.23 K, 600.7 kPa, x2 = 0.251	0.056
373.23 K, 897.8 kPa, x2 = 0.496	0.051
373.27 K, 792.6 kPa, x2 = 0.747	0.092
373.27 K, 1806.6 kPa, x2 = 0.748	0.041
383.17 K, 1940.6 kPa, x2 = 0.513	0.025
383.18 K, 1291.3 kPa, x2 = 0.261	0.026
383.25 K, 815 kPa, x2 = 0.747	0.092
383.28 K, 309.5 kPa, x2 = 0.31	0.121
383.3 K, 437 kPa, x2 = 0.513	0.114
383.31 K, 1859.5 kPa, x2 = 0.748	0.041
383.33 K, 924.1 kPa, x2 = 0.496	0.051
393.06 K, 1327 kPa, x2 = 0.261	0.026
393.1 K, 2000.7 kPa, x2 = 0.513	0.025
393.13 K, 317.8 kPa, x2 = 0.31	0.121
393.14 K, 837.2 kPa, x2 = 0.747	0.092
393.22 K, 448.6 kPa, x2 = 0.513	0.114
393.32 K, 950.3 kPa, x2 = 0.496	0.051
393.33 K, 1911.9 kPa, x2 = 0.748	0.041
403.03 K, 2059.7 kPa, x2 = 0.513	0.025
403.12 K, 1366.9 kPa, x2 = 0.261	0.026
403.17 K, 460.3 kPa, x2 = 0.513	0.114
403.18 K, 326.4 kPa, x2 = 0.31	0.121
403.21 K, 860 kPa, x2 = 0.747	0.092
403.26 K, 1963.8 kPa, x2 = 0.748	0.041
403.27 K, 976.2 kPa, x2 = 0.496	0.051
412.96 K, 2117.2 kPa, x2 = 0.513	0.025
413.15 K, 1405.5 kPa, x2 = 0.261	0.026
413.18 K, 472 kPa, x2 = 0.513	0.114
413.23 K, 881.9 kPa, x2 = 0.747	0.092
413.29 K, 2016 kPa, x2 = 0.748	0.041
413.3 K, 1002.5 kPa, x2 = 0.496	0.052
413.34 K, 334.9 kPa, x2 = 0.31	0.121
413.38 K, 671.6 kPa, x2 = 0.251	0.056
